Results as given in ChEMBL document CHEMBL1138436, “Biological activity and chemistry of taxoids from the Japanese yew, Taxus cuspidata” (J Nat Prod, 2004).
In brackets after ≈: the same amount, converted by molar mass.

Assays:
[1] = Reversal of multidrug resistance in human 2780AD cells assessed as increase in vincristine accumulation relative to verapamil; type: functional, A2780 ADR; parameters: concentration or dose not given beside the values
KB = experiment: Cytotoxicity against human KB cells; type: functional, cell-based

Row | Compound | Activity [1] [%] | IC50 (KB) [ng/mL]
1 | C=C1[C@@H](OC(=O)CCc2ccccc2)CC[C@@]2(C)[C@@H](OC(C)=O)[C@H](OC(C)=O)C3=C(C)C(=O)C[C@@H]([C@@H](OC(C)=O)[C@H]12)C3(C)C | 227 | –
2 | CC(=O)O[C@@H]1[C@@H]2CC(=O)C(C)=C([C@@H](OC(C)=O)[C@H](OC(C)=O)[C@]3(C)CC[C@H](O)[C@]4(CO4)[C@@H]13)C2(C)C | 28 | –
3 | CC[Si](CC)(CC)O[C@H]1CC[C@@]2(C)[C@@H](OC(C)=O)[C@H](OC(C)=O)C3=C(C)C(=O)C[C@@H]([C@@H](OC(C)=O)[C@@H]2[C@@]12CO2)C3(C)C | 101 | –
4 | C=C1[C@@H](O)CC[C@@]2(C)[C@@H](OC(C)=O)[C@H](OC(C)=O)C3=C(C)C(=O)C[C@@](O)([C@@H](OC(C)=O)[C@H]12)C3(C)C | – | 80 (≈ 162 nM)
5 | CC(=O)O[C@@]12CO[C@@H]1C[C@H](O)[C@@]1(C)C(=O)[C@H](O)C3=C(C)[C@@H](OC(=O)[C@H](O)[C@@H](NC(=O)c4ccccc4)c4ccccc4)C[C@@](O)([C@@H](OC(=O)c4ccccc4)[C@H]21)C3(C)C | – | 1.5 (≈ 1.85 nM)
6 | C/C=C(\C)C(=O)N[C@@H](c1ccccc1)[C@@H](O)C(=O)O[C@H]1C[C@@]2(O)[C@@H](OC(=O)c3ccccc3)[C@@H]3[C@]4(OC(C)=O)CO[C@@H]4C[C@H](O)[C@@]3(C)C(=O)[C@H](O)C(=C1C)C2(C)C | – | 1.5 (≈ 1.9 nM)
7 | C=C1[C@@H](OCOCc2ccccc2)CC[C@@]2(C)[C@@H](OC(C)=O)[C@H](OC(C)=O)C3=C(C)C(=O)C[C@@H]([C@@H](OC(C)=O)[C@H]12)C3(C)C | 150 | –
8 | C=C1[C@@H](O)CC[C@@]2(C)[C@@H](OC(C)=O)[C@H](OC(C)=O)C3=C(C)[C@@H](O)C[C@@H]([C@@H](OC(C)=O)[C@H]12)C3(C)C | 28 | –
9 | C=C1[C@@H](OC(=O)/C=C/c2ccccc2)CC[C@@]2(C)[C@@H](OC(=O)/C=C/c3ccccc3)[C@H](OC(=O)/C=C/c3ccccc3)C3=C(C)C(=O)C[C@@H]([C@@H](OC(C)=O)[C@H]12)C3(C)C | 28 | –
10 | C=C1[C@@H](OC(=O)/C=C/c2ccccc2)CC[C@@]2(C)[C@@H](OC(=O)c3ccccc3)[C@H](OC(=O)c3ccccc3)C3=C(C)C(=O)C[C@@H]([C@@H](OC(C)=O)[C@H]12)C3(C)C | 28 | –
11 | C=C1[C@@H](O)CC[C@@]2(C)[C@@H](OC(C)=O)[C@H](OC(C)=O)C3=C(C)[C@@H](OC(=O)c4ccccc4)C[C@@H]([C@@H](OC(C)=O)[C@H]12)C3(C)C | 87 | –
12 | C=C1[C@@H](O)CC[C@@]2(C)[C@@H](OC(C)=O)[C@H](OC(C)=O)C3=C(C)[C@@H](OC(=O)/C=C/c4ccccc4)C[C@@H]([C@@H](OC(C)=O)[C@H]12)C3(C)C | 95 | –
13 | C=C1[C@@H](OC(=O)c2ccccc2)CC[C@@]2(C)[C@@H](OC(C)=O)[C@H](OC(C)=O)C3=C(C)[C@@H](O)C[C@@H]([C@@H](OC(C)=O)[C@H]12)C3(C)C | 88 | –
14 | C=C1[C@@H](O)CC[C@@]2(C)[C@@H](OC(C)=O)[C@H](OC(C)=O)C3=C(C)C(=O)C[C@@H]([C@@H](OC(=O)/C=C/c4ccccc4)[C@H]12)C3(C)C | 98 | –
15 | C=C1[C@@H](O[Si](CC)(CC)CC)CC[C@@]2(C)[C@@H](OC(C)=O)[C@H](OC(C)=O)C3=C(C)C(=O)C[C@@H]([C@@H](OC(C)=O)[C@H]12)C3(C)C | 91 | –
16 | C=C1[C@@H](OC(=O)c2ccccc2)CC[C@@]2(C)[C@@H](OC(C)=O)[C@H](OC(C)=O)C3=C(C)C(=O)C[C@@H]([C@@H](OC(C)=O)[C@H]12)C3(C)C | 87 | –
17 | C=C1[C@@H](OC(=O)c2ccccc2)CC[C@@]2(C)[C@@H](OC(=O)c3ccccc3)[C@H](OC(=O)c3ccccc3)C3=C(C)C(=O)C[C@@H]([C@@H](OC(C)=O)[C@H]12)C3(C)C | 28 | –
18 | C=C1[C@@H](O)CC[C@@]2(C)[C@@H](OC(C)=O)[C@H](OC(C)=O)C3=C(C)[C@H](O)C[C@@H]([C@@H](OC(C)=O)[C@H]12)C3(C)C | 28 | –
19 | CC[Si](CC)(CC)O[C@H]1CC[C@@]2(C)[C@@H](OC(C)=O)[C@H](OC(C)=O)C3=C(C)C(=O)C[C@@H]([C@@H](OC(C)=O)[C@@H]2[C@]12CO2)C3(C)C | 102 | –
20 | CC(=O)O[C@@H]1[C@@H]2CC(=O)C(C)=C([C@@H](OC(C)=O)[C@H](OC(C)=O)[C@]3(C)CC[C@H](OC(=O)/C=C/c4ccccc4)[C@@]4(CO4)[C@@H]13)C2(C)C | 139 | –
21 | C=C1[C@@H](OC(=O)/C=C/c2ccccc2)CC[C@@]2(C)[C@@H](OC(=O)/C=C/c3ccccc3)[C@H](OC(=O)/C=C/c3ccccc3)C3=C(C)C(=O)C[C@@H]([C@@H](OC(=O)/C=C/c4ccccc4)[C@H]12)C3(C)C | 28 | –
22 | CC(=O)O[C@@H]1[C@@H]2CC(=O)C(C)=C([C@@H](OC(C)=O)[C@H](OC(C)=O)[C@]3(C)CC[C@H](O)[C@@]4(CO4)[C@@H]13)C2(C)C | 28 | –

Row | Compound | Activity [1] [%] | IC50 (KB) [ng/mL]
23 | C=C1[C@@H](OC(=O)C[C@H](c2ccccc2)N(C)C)C[C@H](OC(C)=O)[C@]2(C)[C@@H]1C[C@@H]1C[C@H](OC(C)=O)C(C)=C([C@@H](OC(C)=O)[C@@H]2OC(C)=O)C1(C)C | 114 | –
24 | C=C1[C@@H](OC(=O)/C=C/c2ccccc2)CC[C@@]2(C)[C@@H](OC(C)=O)[C@H](OC(C)=O)C3=C(C)[C@@H](OC(=O)/C=C/c4ccccc4)C[C@@H]([C@@H](OC(C)=O)[C@H]12)C3(C)C | 28 | –
25 | C=C1[C@@H](OC(=O)C[C@H](c2ccccc2)N(C)C)CC[C@]2(C)[C@@H]1C[C@@H]1C[C@H](OC(C)=O)C(C)=C([C@@H](OC(C)=O)[C@@H]2OC(C)=O)C1(C)C | 119 | –
26 | C=C1[C@@H](OC(=O)c2ccccc2)CC[C@@]2(C)[C@@H](OC(C)=O)[C@H](OC(C)=O)[C@@]34[C@H](C)C(=O)C[C@@H]([C@@H](OC(C)=O)[C@@]132)C4(C)C | 125 | –
27 | CC(=O)O[C@@]12CO[C@@H]1C[C@@H](O)[C@@]1(C)C(=O)[C@H](O)C3=C(C)[C@@H](OC(=O)[C@H](O)[C@@H](NC(=O)c4ccccc4)c4ccccc4)C[C@@](O)([C@@H](OC(=O)c4ccccc4)[C@H]21)C3(C)C | – | 1.5 (≈ 1.85 nM)
28 | CC(=O)O[C@H]1C(=O)[C@]2(C)[C@H](O)C[C@H]3OC[C@@]3(OC(C)=O)[C@H]2[C@H](OC(=O)c2ccccc2)[C@]2(O)C[C@H](OC(=O)[C@H](O)[C@@H](NC(=O)c3ccccc3)c3ccccc3)C(C)=C1C2(C)C | – | 1.5 (≈ 1.76 nM)
29 | C=C1[C@@H](OC(=O)/C=C/c2ccccc2)CC[C@@]2(C)[C@H]3OC(C)(C)O[C@@H]3C3=C(C)C(=O)C[C@@H]([C@@H](OC(=O)c4ccccc4)[C@H]12)C3(C)C | 28 | –
30 | C=C1[C@@H](OC(=O)/C=C/c2ccccc2)CC[C@@]2(C)[C@H]3OC(C)(C)O[C@@H]3C3=C(C)C(=O)C[C@@H]([C@@H](OC(=O)/C=C/c4ccccc4)[C@H]12)C3(C)C | 28 | –
31 | C=C1[C@@H](OC(=O)/C=C/c2ccccc2)C[C@H](OC(C)=O)[C@]2(C)[C@@H]1C[C@@H]1C[C@H](OC(C)=O)C(C)=C([C@@H](OC(C)=O)[C@@H]2OC(C)=O)C1(C)C | 108 | –
32 | CCCCCC(=O)N[C@@H](c1ccccc1)[C@@H](O)C(=O)O[C@H]1C[C@@]2(O)[C@@H](OC(=O)c3ccccc3)[C@@H]3[C@]4(OC(C)=O)CO[C@@H]4C[C@H](O)[C@@]3(C)C(=O)[C@H](O)C(=C1C)C2(C)C [10-DEACETYLTAXAYUNNANINE A] | – | 1.5 (≈ 1.86 nM)
33 | C=C1[C@H]2C[C@]3(C(C)(C)O)C[C@H](O)C(C)=C3[C@@H](OC(=O)c3ccccc3)[C@H](OC(C)=O)[C@]2(C)[C@@H](OC(C)=O)C[C@@H]1O [BREVIFOLIOL] | – | 80 (≈ 144 nM)
34 | C/C=C(\C)C(=O)N[C@@H](c1ccccc1)[C@@H](O)C(=O)O[C@H]1C[C@@]2(O)[C@@H](OC(=O)c3ccccc3)[C@@H]3[C@]4(OC(C)=O)CO[C@@H]4C[C@H](O)[C@@]3(C)C(=O)[C@H](OC(C)=O)C(=C1C)C2(C)C [CEPHALOMANNINE] | – | 1.5 (≈ 1.8 nM)
35 | CC(=O)O[C@H]1C(=O)[C@@]2(C)[C@H]([C@H](OC(=O)c3ccccc3)[C@]3(O)C[C@H](OC(=O)[C@H](O)[C@@H](NC(=O)c4ccccc4)c4ccccc4)C(C)=C1C3(C)C)[C@]1(OC(C)=O)CO[C@@H]1C[C@@H]2O [PACLITAXEL] | – | 1.5 (≈ 1.76 nM)
36 | C=C1[C@@H](OC(=O)/C=C/c2ccccc2)C[C@H](OC(C)=O)[C@@]2(C)[C@@H](OC(C)=O)[C@H](OC(C)=O)[C@]3(O)[C@@]4(C)CO[C@]3(C)C(=O)C[C@H]4[C@@H](OC(C)=O)[C@H]12 [TAXAGIFINE] | – | 80 (≈ 115 nM)
37 | C=C1[C@@H](OC(=O)/C=C/c2ccccc2)C[C@H](OC(C)=O)[C@]2(C)[C@@H]1C[C@@H]1C[C@H](O)C(C)=C([C@@H](OC(C)=O)[C@@H]2OC(C)=O)C1(C)C [TAXEZOPIDINE H] | 106 | –
38 | C=C1[C@@H](OC(=O)C[C@H](c2ccccc2)N(C)C)CC[C@@]2(C)[C@@H](OC(C)=O)[C@H](OC(C)=O)C3=C(C)C(=O)C[C@@H]([C@@H](OC(C)=O)[C@H]12)C3(C)C [TAXINE II] | 95 | –
39 | CC(=O)O[C@H]1C[C@H]2[C@@H](OC(C)=O)/C=C3\C[C@](C)(C(=O)[C@H](O)C(=C1C)C2(C)C)[C@@H](OC(C)=O)C[C@@H]3OC(=O)/C=C/c1ccccc1 [TAXUSPINE B] | 96 | –
40 | C=C1[C@@H](OC(=O)/C=C/c2ccccc2)CC[C@@]2(C)[C@@H](OC(C)=O)[C@H](OC(C)=O)[C@@]34[C@H](C)C(=O)C[C@@H]([C@@H](OC(C)=O)[C@@]132)C4(C)C [TAXUSPINE C] | 104 | –
41 | C=C1[C@@H](OC(=O)/C=C/c2ccccc2)C[C@H](OC(C)=O)[C@]2(C)[C@@H]1C[C@]1(C(C)(C)O)C[C@H](OC(C)=O)C(C)=C1[C@@H](OC(C)=O)[C@@H]2OC(C)=O [TAXUSPINE J] | 114 | –
42 | CC(=O)OC/C1=C\[C@H](OC(C)=O)[C@@H]2C[C@H](OC(C)=O)C(C)=C([C@@H](O)/C(OC(C)=O)=C(\C)[C@@H](OC(C)=O)C[C@@H]1OC(=O)/C=C/c1ccccc1)C2(C)C [TAXUSPINE X] | 105 | –
43 | C=C1[C@@H](OC(=O)C[C@H](c2ccccc2)N(C)C)CC[C@@]2(C)[C@@H](OC(C)=O)[C@H](OC(C)=O)C3=C(C)[C@@H](OC(C)=O)C[C@@H]([C@@H](O)[C@H]12)C3(C)C [TAXUSPINE Z] | 106 | –
